Entries after “also recorded” stand apart in the source; their conditions may differ. Structures can show the parent of a compound that is named as a salt.
Legend:
C2C12 myotubes = assay: Glucose concentration in C2C12 myotube culture medium; type: cell-based, Mice; settings: for glucose consumption in normoglycemia: glucose adjusted to 100 mg/100 mL, 10 mM (FIGS. 68A-B)
Procedure: FIG. 67. Hypoglycemic activity ex vivo. Glucose concentration in myocyte culture medium, treated with the control, SLN1, or SLN10. […]. The final glucose concentration in the culture medium was determined with a Glucocard (Arkray). […].
Glucose concentration in culture media was determined with a Glucocard (Arkray). […].
For this purpose, the evolution of glucose uptake was studied in the culture medium of myotubes in response to different molecules studied (FIG. 67).

[1] = tested on: AMPK and GLUT4 in NIH-3T3-L1 adipocytes; assay: AMPK activation and GLUT4 in plasma membrane of L1 adipocytes (Western blot); type: cell-based, Mice; settings: 10 mM, 3 hours
Procedure: . 2 days in culture media supplemented with insulin 1 μg/mL; and 6 days in culture media. […]. Similar quantities of each extract were analyzed using Western blot (SDS-PAGE and electrotransfer), with the indicated antibodies and chemiluminescence (ECL Prime, GE Healthcare). FIGS. 70B-C show pictures of L1 adipocyte cultures treated as in FIG. 70A and exposed to fractioning for protein extraction from plasma membrane by a procedure described above (Nishiumi & Ashida. Biosci Biotechnol Biochem. 2007; 71:2343-6). Briefly, cells were washed with PBS and collected in solution A (Tris 50 mM, pH 8.0, DTT 0.5 mM, 0.1% Nonidet P-40, PMSF 1 mM, leupeptin 5 μg/mL, aprotinin 5 μg/mL, NaF 10 mM, Na3VO4 1 mM) and lysed manually with a Dounce homogenizer (20 pestle movements). Homogenized solutions were centrifuged (1000×g, 10 minutes, 4° C.), cell precipitates were dispersed in solution A, without Nonidet P-40, stored in ice for 10 minutes, occasionally stirred, and centrifuged again (1000×g, 10 minutes, 4° C.). […]. Supernatants were stored at −80° C. until analysis. Equivalent quantities of demembrane extracts were analyzed by Western blot with anti-GLUT4 (Abcam) antibodies. […]

insulin receptor = assay: Insulin receptor β subunit in plasma membrane of C2C12 myotubes; type: cell-based, Mice; settings: 10 mM, 3 hours (FIG. 76), listed as SLN10
Procedure: FIG. 76. Metformin lysinate promotes the accumulation of insulin receptor β subunit in plasma membrane. C2C12 cells were differentiated for 5 days in DMEM supplemented with 2% horse serum; then, cultures were treated for 3 hours with SLN1 or SLN10 10 mM, or with vehicle (control) at 37° C. Similar quantities of each extract were analyzed by Western blot with insulin receptor subunit (IRP) specific antibodies.

[2] = tested on: RAW264.7 macrophages and L1 adipocytes co-cultures; assay: Cytometric analysis of RAW + L1 co-cultures; type: cell-based, Mice; settings: for EVENTS, F4/80^+CD86^− (first line) / %, F4/80^+CD86^− (second line) / EVENTS, F4/80^+CD86^− (second line) / %, F4/80^+CD86^− (first line) / %, F4/80^+: 10 mM, 24 hours; for %, F4/80^+CD86^− (second line): M1 macrophage percentage of total macrophages; for EVENTS, F4/80^+CD86^− (second line): M1 macrophages; for %, F4/80^+CD86^− (first line): of total macrophages; for %, F4/80^+: total macrophages; for reduction of the proportion of macrophages in M1: co-cultures
Source text: One of the key pathogenic events in hyperglycemia of obese patients is the emergence of a pathogenic feedback between adipose tissue and macrophages of the immune system, in which adipocytes attract macrophages, polarizing them to pro-inflammatory phenotypes, and polarized macrophages secrete cytokines, promoting resistance to adipocyte insulin (Johnson A M, Olefsky J M. Cell. 2013; 152:673-84). To reproduce this pathogenic dialogue ex vivo and investigate the activity of SLNs compounds thereon, cytometric techniques allowing the discrimination between these cell lines and determination of phenotypic changes in macrophages in response to individual compounds (Table 18) were used.
RAW264.7 macrophages were added to adipocyte cultures, and the co-culture was maintained in DMEM supplemented with 10% FBS and antibiotics for 8 hours. […]. Next, cells were washed with PBS and collected by mechanical methods (without trypsin) to prevent protein loss from the cell surface. Cells were then blocked (FcBlock, BD Pharmingen) for 15 minutes at 4° C., and incubated for 20-30 minutes at 4° C. in darkness with anti-mouse F4/80 (eBioscience), conjugated with PerCP-Cy5.5, to mark macrophages, and anti-mouse CD86 (BioLegend), conjugated with PE-Cy7.7, to mark macrophages M1 specifically. Afterwards, cells were washed three times with PBS and centrifuged (500×g, 10 minutes, 4° C.), after which they were analyzed with a cytometer (FACSVerse, BD). In Table 6, the M1 macrophage percentage of the total macrophages analyzed (burgundy) for each treatment is highlighted in yellow.

GPBP = GPBP Western blot of treated A549 cells; type: cell-based; settings: 10 mM, 3 hours
Procedure: After the incubation time, cells were washed twice with PBS and lysed in 25 mM Tris-HCl, pH 7.4, 140 mM NaCl, 3 mM KCl, 20 mM NaF, 1 mM PMSF, 10 μg/mL leupeptin, 1% Triton X-100 for 20 min at 4° C. The lysates were centrifuged at 20,000×g for 10 min at 4° C., supernatants were recovered, and protein concentration determined
Equal amounts of each lysate (40 μg) were analyzed by Western blot, with monoclonal antibodies against GPBP N27 (Fibrostatin SL) and against tubulin (Sigma). Electrophoresis was performed in polyacrylamide gel (6.5%) with SDS, after which electroblotting was carried out to PVDF membrane (Immobilon P, Millipore Merck). After transfer, the membranes were blocked in 5% skim milk in 25 mM Tris-HCl, pH 7.5, 150 mM NaCl, 0.05% Tween-20 (TBST) for 45 min, and then incubated with primary antibodies diluted in blocking solution for 16 hours at 4° C. Thereafter, the membranes were washed with TBST (3×5 minutes) and incubated with secondary antibodies against mouse IgG, conjugated to horseradish peroxidase (HRP) (Sigma) for 1 hours at room temperature while stirring. After further washes with TBST (3×5 minutes), the chemiluminescence disclosure was performed by using the ECL Prime reagent (GE Healthcare) and the image generation system ImageQuant LAS 4000 Mini (GE Healthcare).
The Western blots disclosure images were analyzed with the ImageJ WCIF program.

| Compound | glucose consumption in normoglycemia (C2C12 myotubes) | anti-hyperglycaemic activity (glucose in myotube medium) (C2C12 myotubes; initial glucose 450 mg/100 mL, 10 mM, last 18 hours (FIG. 67), listed as SLN10) | AMPK activation [1] | GLUT4 accumulation in the plasma membrane [1] | accumulation of insulin receptor in the plasma membrane (insulin receptor) | EVENTS, F4/80^+CD86^− (first line) [2] | %, F4/80^+CD86^− (second line) [2] [%] | EVENTS, F4/80^+CD86^− (second line) [2] | %, F4/80^+CD86^− (first line) [2] [%] | %, F4/80^+ [2] [%] | reduction of the proportion of macrophages in M1 [2] | GPBP polypeptides reactive with N27 (GPBP; pH 7.5, listed as SLN10) | GPBP polypeptides reactive with N27 (GPBP; pH 9.3) |
| --- | --- | --- | --- | --- | --- | --- | --- | --- | --- | --- | --- | --- | --- |
| metformin lysinate | equally induce glucose consumption | greater effect than SLN1; also recorded: higher than that of compound SLN1 | activates AMPK | induces a GLUT4 accumulation in the plasma membrane | promotes the accumulation of insulin receptor in the plasma membrane | 566 | 62.96 | 962 | 37.04 | 100.00 | strongest effect | more abundant in culture extracts treated with SLN10; also recorded: shifts to positions of less molecular weight | shifts to positions of less molecular weight |
| CN(C)C(=N)N=C(N)N [Metformin hydrochloride, metformin hydrochloride, reference compound] | equally induce glucose consumption | – | – | – | – | 551 | 65.76 | 1,058 | 34.24 | 100.00 | lowest activity | – | – |

Reference: patent publication US11510886B2, “Metformin amino acid compounds and methods of using the same” (Laboratorios Silancs S.A. DE C.V., priority 2016, dated 2022)
